Experimental data as given in PubChem BioAssay (NCI).
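A five-concentration, 48-hour dose response in 96-well plates underlies each endpoint, interpolated linearly between surrounding concentrations. At the GI50, growth is halved. TGI is the concentration that stops growth completely.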

Columns and labels:
Assay in all cases: NCI-60 cell line screen, 48 h
[1] = tested on: HL-60(TB) leukemia
[2] = tested on: OVCAR-3 ovarian
[3] = tested on: HCT-15 colon
[4] = tested on: LOX IMVI melanoma
[5] = tested on: KM12 colon
[6] = tested on: SF-268 CNS
[7] = tested on: TK-10 renal
[8] = tested on: SN12C renal
[9] = tested on: PC-3 prostate
[10] = tested on: DU-145 prostate
[11] = tested on: SF-539 CNS
[12] = tested on: NCI-H522 lung
[13] = tested on: UACC-62 melanoma
[14] = tested on: SK-MEL-28 melanoma
[15] = tested on: MOLT-4 leukemia
[16] = tested on: COLO 205 colon
[17] = tested on: RXF 393 renal
[18] = tested on: U251 CNS
[19] = tested on: SK-OV-3 ovarian
[20] = tested on: MCF7 breast
[21] = tested on: A549 NSCLC
[22] = tested on: SK-MEL-2 melanoma
[23] = tested on: HCC-2998 colon
[24] = tested on: SNB-19 CNS
[25] = tested on: RPMI-8226 leukemia
[26] = tested on: MALME-3M melanoma
[27] = tested on: EKVX NSCLC
[28] = tested on: HT29 colon
[29] = tested on: M14 melanoma
[30] = tested on: K-562 leukemia
[31] = tested on: OVCAR-5 ovarian
[32] = tested on: T-47D breast
[33] = tested on: NCI/ADR-RES ovarian
[34] = tested on: OVCAR-4 ovarian
[35] = tested on: SNB-75 CNS
[36] = tested on: HCT-116 colon
[37] = tested on: OVCAR-8 ovarian
[38] = tested on: SF-295 CNS
[39] = tested on: MDA-MB-231 breast
[40] = tested on: UO-31 renal
[41] = tested on: 786-0 renal
[42] = tested on: A498 renal
[43] = tested on: NCI-H460 lung
[44] = tested on: BT-549 breast
[45] = tested on: MDA-MB-435
[46] = tested on: CAKI-1 renal
[47] = tested on: IGROV1 ovarian
[48] = tested on: HS 578T breast
[49] = tested on: ACHN renal
[50] = tested on: SW-620 colon
[51] = tested on: HOP-62 NSCLC
[52] = tested on: SK-MEL-5 melanoma
[53] = tested on: NCI-H23 lung
[54] = tested on: UACC-257 melanoma
[55] = tested on: SR leukemia
[56] = tested on: CCRF-CEM leukemia

In the case of `O=C1NC(=O)C(c2cccc([N+](=O)[O-])c2)=C1Nc1cc(Cl)c(O)c(Cl)c1`, the GI50 [1] is reported as greater than 25 µM, the TGI [1] is reported as greater than 25 µM and the GI50 [2] is reported as greater than 17.9 µM. It also gave a TGI [2] greater than 25 µM, a GI50 [3] greater than 25 µM and a TGI [3] greater than 25 µM. It also gave a GI50 [4] of 24.3 µM, a TGI [4] greater than 25 µM and a GI50 [5] greater than 25 µM. It also gave a TGI [5] greater than 25 µM, a GI50 [6] greater than 25 µM and a TGI [6] greater than 25 µM. It also gave a GI50 [7] greater than 17.7 µM, a TGI [7] greater than 25 µM and a GI50 [8] greater than 25 µM. The TGI [8] was greater than 25 µM, the GI50 [9] was greater than 25 µM and the TGI [9] was greater than 25 µM. For the same compound, the GI50 [10] was greater than 25 µM, the TGI [10] was greater than 25 µM and the GI50 [11] was greater than 25 µM. It also gave a TGI [11] greater than 25 µM, a GI50 [12] greater than 16.5 µM and a TGI [12] greater than 25 µM. The GI50 [13] was greater than 20.8 µM, the TGI [13] was greater than 25 µM and the GI50 [14] was greater than 25 µM. It also gave a TGI [14] greater than 25 µM, a GI50 [15] greater than 25 µM and a TGI [15] greater than 25 µM. For the same compound, the GI50 [16] was greater than 25 µM, the TGI [16] was greater than 25 µM and the GI50 [17] was greater than 21.7 µM. It also gave a TGI [17] greater than 25 µM, a GI50 [18] greater than 25 µM and a TGI [18] greater than 25 µM. For the same compound, the GI50 [19] was 12 µM, the TGI [19] was greater than 25 µM and the GI50 [20] was greater than 25 µM. For the same compound, the TGI [20] was greater than 25 µM, the GI50 [21] was greater than 25 µM and the TGI [21] was greater than 25 µM. The GI50 [22] was greater than 19.8 µM, the TGI [22] was greater than 25 µM and the GI50 [23] was greater than 25 µM. The TGI [23] was greater than 25 µM, the GI50 [24] was greater than 25 µM and the TGI [24] was greater than 25 µM. It also gave a GI50 [25] greater than 25 µM, a TGI [25] greater than 25 µM and a GI50 [26] greater than 25 µM. For the same compound, the TGI [26] was greater than 25 µM, the GI50 [27] was greater than 25 µM and the TGI [27] was greater than 25 µM. It also gave a GI50 [28] greater than 25 µM, a TGI [28] greater than 25 µM and a GI50 [29] greater than 25 µM. It also gave a TGI [29] greater than 25 µM, a GI50 [30] greater than 25 µM and a TGI [30] greater than 25 µM. For the same compound, the GI50 [31] was greater than 25 µM, the TGI [31] was greater than 25 µM and the GI50 [32] was greater than 25 µM. It also gave a TGI [32] greater than 25 µM, a GI50 [33] greater than 25 µM and a TGI [33] greater than 25 µM. For the same compound, the GI50 [34] was greater than 25 µM, the TGI [34] was greater than 25 µM and the GI50 [35] was 10.7 µM. For the same compound, the TGI [35] was greater than 25 µM, the GI50 [36] was greater than 25 µM and the TGI [36] was greater than 25 µM. It also gave a GI50 [37] greater than 25 µM, a TGI [37] greater than 25 µM and a GI50 [38] greater than 16.3 µM. The TGI [38] was greater than 25 µM, the GI50 [39] was greater than 25 µM and the TGI [39] was greater than 25 µM. It also gave a GI50 [40] greater than 17.6 µM, a TGI [40] greater than 25 µM and a GI50 [41] greater than 23.3 µM. The TGI [41] was greater than 25 µM, the GI50 [42] was greater than 11.5 µM and the TGI [42] was greater than 25 µM. For the same compound, the GI50 [43] was greater than 23.4 µM, the TGI [43] was greater than 25 µM and the GI50 [44] was greater than 16.2 µM. The TGI [44] was greater than 25 µM, the GI50 [45] was greater than 25 µM and the TGI [45] was greater than 25 µM. The GI50 [46] was greater than 20.9 µM, the TGI [46] was greater than 25 µM and the GI50 [47] was greater than 25 µM. It also gave a TGI [47] greater than 25 µM, a GI50 [48] of 7.03 µM and a TGI [48] greater than 25 µM. For the same compound, the GI50 [49] was greater than 25 µM, the TGI [49] was greater than 25 µM and the GI50 [50] was greater than 25 µM. The TGI [50] was greater than 25 µM, the GI50 [51] was greater than 25 µM and the TGI [51] was greater than 25 µM. For the same compound, the GI50 [52] was 24.4 µM and the TGI [52] was greater than 25 µM.
For `Cc1nn(C(=O)Cc2ccccc2)c2c1C(c1ccc(Cl)cc1)SC(N)=N2` (stereo unspecified), the TGI [1] was greater than 100 µM, the TGI [53] was greater than 100 µM and the TGI [3] was greater than 100 µM. It also gave a TGI [4] greater than 100 µM, a TGI [5] greater than 100 µM and a TGI [6] greater than 100 µM. The TGI [7] was greater than 100 µM, the TGI [8] was greater than 100 µM and the TGI [9] was greater than 100 µM. For the same compound, the TGI [10] was greater than 100 µM, the TGI [11] was greater than 100 µM and the TGI [12] was greater than 100 µM. The TGI [13] was greater than 100 µM, the TGI [14] was greater than 100 µM and the TGI [15] was greater than 100 µM. It also gave a TGI [54] greater than 100 µM, a TGI [16] greater than 100 µM and a TGI [19] greater than 100 µM. For the same compound, the TGI [20] was greater than 100 µM, the TGI [21] was greater than 100 µM and the TGI [23] was greater than 100 µM. The TGI [25] was greater than 100 µM, the TGI [26] was greater than 100 µM and the TGI [27] was greater than 100 µM. The TGI [28] was greater than 100 µM, the TGI [29] was greater than 100 µM and the TGI [30] was greater than 100 µM. For the same compound, the TGI [32] was greater than 100 µM, the TGI [35] was 96.9 µM and the TGI [36] was greater than 100 µM. For the same compound, the TGI [37] was greater than 100 µM, the TGI [38] was greater than 100 µM and the TGI [39] was greater than 100 µM. It also gave a TGI [41] greater than 100 µM, a TGI [42] greater than 100 µM and a TGI [43] greater than 100 µM. The TGI [44] was greater than 100 µM, the TGI [45] was greater than 100 µM and the TGI [46] was greater than 100 µM. For the same compound, the TGI [47] was greater than 100 µM, the TGI [48] was greater than 100 µM and the TGI [55] was greater than 100 µM. For the same compound, the TGI [49] was greater than 100 µM, the TGI [50] was greater than 100 µM and the TGI [51] was greater than 100 µM. For the same compound, the TGI [56] was greater than 100 µM and the TGI [52] was greater than 100 µM.
